Consider twelve compounds from PMC10786919, “Design-rules for stapled peptides with in vivo activity and their application to Mdm2/X antagonists” (Nature Communications, 2024).

One data set deals with HCT116 cells. Kind of data set: Lactate dehydrogenase (LDH) release assay. The class given is cell-based. On the procedure:
(§1) HCT116 cells were stably transfected with a p53 responsive β-lactamase reporter and expanded in McCoy’s 5 A Medium with 10% fetal bovine serum (FBS), Blasticidin, and Penicillin/Streptomycin and then transferred to 1.5 ml freezing vials and stored under liquid nitrogen in growth media containing 5% DMSO. […] The cells were then seeded into a 384-well plate at a density of 8000 cells per well. […] The final working concentration of DMSO was 0.5%. Lactate dehydrogenase release was detected using the CytoTox-ONE Homogenous Membrane Integrity Assay Kit (Promega), as per the manufacturer’s instructions. Measurements were carried out using the Tecan plate reader. […] Measurements were taken a minimum of three times (biological replicates) and values are reported as geometric means of the replicates.

A short description of data set [1]: Lactate dehydrogenase (LDH) release assay. It counts as cell-based. On the procedure:
as §1

The nature of data set [2]: Solubility assay (kinetic solubility, PBS pH 7). It counts as physicochemical. The conditions noted are these: pH 7, PBS; for solubility kinetic: pH 7, aqueous buffer, kinetic from dmso stock, read-out: Solubility. The protocol:
The standard reference solutions were prepared by diluting the 10 mM stock in 10:80:10 solution of acetonitrile:methanol:DMSO to 100 µM.
The solubility value is calculated by the following equation:
Solubility [µM] = (Peak area of sample/ Peak area of standard) (Standard concentration)

Data set [3] is described as follows: Experimental LogD (partition coefficient). Particulars: for logD: not stated, Partition Coeff LogD.
The mark [4] stands for this setting: 0% FBS 4Hr, read-out: LDH: Cytotoxicity assay EC50.
Where [5] appears, read: 10% FBS 16Hr, read-out: LDH: Cytotoxicity assay EC50.

Values after ≈ are worked out from the molar mass of the structure shown. Where two headings read alike, the source gives them in different places. Positions of bridges follow the written chain, without caps; N, C: chain ends. Non-standard residues stand in square brackets, D forms with d. Residues, ends and D or L forms follow the SMILES beside them. Trp(6-Cl) = N[C@@H](Cc1c[nH]c2cc(Cl)ccc12)C(=O)O; Lys(N3) = [N-]=[N+]=NCCCC[C@H](N)C(=O)O; R8 = C=CCCCCCC[C@@](C)(N)C(=O)O; Cba = N[C@@H](CC1CCC1)C(=O)O; S5 = C=CCCC[C@](C)(N)C(=O)O; Ahx = NCCCCCC(=O)O; βAla = NCCC(=O)O; Sar = CNCC(=O)O A value given as a limit tells only on which side of the number the result lay.

By EC50 is commonly meant the concentration giving half of the maximal effect. A word on the logD: it is lipophilicity at a set pH, counting ionised and neutral species. A low value points to a more hydrophilic compound. For `CC(=O)N[C@@H](CCCNC(=N)N)C(=O)NCCC(=O)N[C@@H](CC(C)C)C(=O)N[C@H](C(=O)N[C@@H](Cc1ccccc1)C(=O)N[C@]1(C)CCCCCCC=CCCC[C@@](C)(C(=O)N[C@@H](CO)C(=O)N[C@@H](C)C(=O)N[C@@H](C)C(N)=O)NC(=O)[C@H](CC2CCC2)NC(=O)[C@H](CCC(N)=O)NC(=O)[C@H](C)NC(=O)[C@H](Cc2c[nH]c3ccccc23)NC(=O)[C@H](Cc2ccc(O)cc2)NC(=O)[C@H](CCC(=O)O)NC1=O)[C@@H](C)O` [MP-000], in the data set with HCT116 cells, the “LDH: Cytotoxicity assay: % Effect” value was determined as 6.079%. For the same compound, the EC50 in data set [1] (LDH: Cytotoxicity assay: EC50) is more than 50 µM. For the same compound, in data set [2], the solubility kinetic is 2 µM (≈ 3.94 µg/mL). In addition, the logD in data set [3] is 2.66.
As to `CC(=O)N[C@@H](CCCCN=[N+]=[N-])C(=O)NCCC(=O)N[C@@H](CC(C)C)C(=O)N[C@H](C(=O)N[C@@H](Cc1ccccc1)C(=O)N[C@]1(C)CCCCC#CC#CCCC[C@@](C)(C(=O)N[C@@H](C)C(=O)N[C@@H](C)C(=O)N[C@@H](C)C(=O)N[C@@H](C)C(=O)N[C@@H](C)C(=O)N[C@H](C)C(N)=O)NC(=O)[C@H](CC2CCC2)NC(=O)[C@H](CCC(N)=O)NC(=O)[C@H](C)NC(=O)[C@H](Cc2c[nH]c3ccccc23)NC(=O)[C@H](Cc2ccc(O)cc2)NC(=O)[C@H](CCC(=O)O)NC1=O)[C@@H](C)O` [MP-616], the “LDH: Cytotoxicity assay: % Effect” value with HCT116 cells (0% FBS 4Hr) is listed as 12.87%; in the data set with HCT116 cells (10% FBS 16Hr), 8.138%. In addition, the concentration giving a half-maximal response (EC50) was more than 50.7 µM in data set [1] (0% FBS 4Hr, read-out: LDH: Cytotoxicity assay: EC50) and more than 50.7 µM in data set [1] (10% FBS 16Hr, read-out: LDH: Cytotoxicity assay: EC50). For the same compound, in data set [3], the log distribution coefficient (logD) is 2.67.
For the compound `CC(=O)N[C@@H](CCCCN=[N+]=[N-])C(=O)NCCC(=O)N[C@@H](CC(C)C)C(=O)N[C@H](C(=O)N[C@@H](Cc1ccccc1)C(=O)N[C@]1(C)CCCCCCC=CCCC[C@@](C)(C(=O)N[C@@H](C)C(=O)N(C)CC(=O)N(C)CC(=O)N(C)CC(=O)N(C)CC(=O)N(C)CC(N)=O)NC(=O)[C@H](CC2CCC2)NC(=O)[C@H](CCC(N)=O)NC(=O)[C@H](C)NC(=O)[C@H](Cc2c[nH]c3ccccc23)NC(=O)[C@H](Cc2ccc(O)cc2)NC(=O)[C@H](CCC(=O)O)NC1=O)[C@@H](C)O` [MP-443] (Ac-[Lys(N3)][βAla]LTF[R8]EYWAQ[Cba][S5]A[Sar][Sar][Sar][Sar][Sar]-NH2; staple 6-13), the “LDH: Cytotoxicity assay % Effect” value is 8.392% in the data set on HCT116 cells (0% FBS 4Hr) and 2.311% in the data set with HCT116 cells (10% FBS 16Hr). Moreover, the EC50 in data set [1] (setting [4]) and in data set [1] (setting [5]) was more than 50.7 µM each time. The solubility kinetic in data set [2] is 180 µM (≈ 390 µg/mL).
Take `CC(=O)N[C@@H](CCCCN=[N+]=[N-])C(=O)N[C@H](C(=O)N[C@@H](Cc1ccccc1)C(=O)N[C@]1(C)CCCCC#CC#CCCC[C@@](C)(C(=O)N[C@@H](CCC(=O)O)C(=O)N[C@@H](C)C(=O)N[C@@H](Cc2ccccc2)C(=O)N[C@@H](C)C(=O)N[C@@H](C)C(=O)N[C@@H](Cc2ccccc2)C(N)=O)NC(=O)[C@H](CC2CCC2)NC(=O)[C@H](CCC(N)=O)NC(=O)[C@H](C)NC(=O)[C@H](Cc2c[nH]c3ccccc23)NC(=O)[C@H](Cc2ccc(O)cc2)NC(=O)[C@H](CCC(=O)O)NC1=O)[C@@H](C)O` [MP-444, Ac-K(N3)-TF(X)EYWAQ(Cba)(X)EAFAAF-NH2]: the results for the “LDH: Cytotoxicity assay % Effect” value in the data set with HCT116 cells (0% FBS 4Hr) and in the data set with HCT116 cells (10% FBS 16Hr) were 17.89% and 4.968%, respectively. Further, the EC50 in data set [1] (setting [4]) and in data set [1] (setting [5]) was more than 50.7 µM throughout. Also, the solubility kinetic in data set [2] is 167 µM (≈ 365 µg/mL).
Consider `CC(=O)N[C@@H](CCCCN=[N+]=[N-])C(=O)N[C@@H](CCCCN)C(=O)N[C@@H](CCCCN)C(=O)N[C@@H](CCCCN)C(=O)NCCCCCC(=O)N[C@H](C(=O)N[C@@H](CO)C(=O)N[C@@H](Cc1ccccc1)C(=O)N[C@]1(C)CCCCCCC=CCCC[C@@](C)(C(=O)N[C@@H](CCC(=O)O)C(=O)N[C@@H](CC(N)=O)C(=O)N[C@@H](Cc2ccccc2)C(N)=O)NC(=O)[C@H](CC(C)C)NC(=O)[C@H](CC(C)C)NC(=O)[C@H](C)NC(=O)[C@H](Cc2c[nH]c3ccccc23)NC(=O)[C@H](Cc2ccc(O)cc2)NC(=O)[C@H](CCC(=O)O)NC1=O)[C@@H](C)O` [MP-085] (Ac-[Lys(N3)]KKK[Ahx]TSF[R8]EYWALL[S5]ENF-NH2; staple 9-16), for which, in data set [1] (LDH: Cytotoxicity assay EC50), the concentration giving a half-maximal response (EC50) was more than 50 µM. Further, in data set [2], the solubility kinetic is 2 µM (≈ 5.01 µg/mL). Further, in data set [3], the logD stood at 2.39.
As for `CC(=O)N[C@@H](CCN)C(=O)NCCCCCC(=O)N[C@H](C(=O)N[C@@H](CO)C(=O)N[C@@H](Cc1ccccc1)C(=O)N[C@]1(C)CCCCCCC=CCCC[C@@](C)(C(=O)N[C@@H](CCC(=O)O)C(=O)N[C@@H](CC(N)=O)C(=O)N[C@@H](Cc2ccccc2)C(N)=O)NC(=O)[C@H](CC(C)C)NC(=O)[C@H](CC(C)C)NC(=O)[C@H](C)NC(=O)[C@H](Cc2c[nH]c3ccccc23)NC(=O)[C@H](Cc2ccc(O)cc2)NC(=O)[C@H](CCC(=O)O)NC1=O)[C@@H](C)O` [MP-666], the “LDH: Cytotoxicity assay % Effect” value in the data set with HCT116 cells was found to be 15.43%. The same compound came in with an EC50 in data set [1] (LDH: Cytotoxicity assay EC50) of more than 50 µM.
For `CC(=O)N[C@H](C(=O)N[C@@H](CCCNC(N)=O)C(=O)N[C@@H](CC(C)C)C(=O)N[C@H](C(=O)N[C@@H](Cc1ccccc1)C(=O)N[C@]1(C)CCCCCCC=CCCC[C@@](C)(C(=O)N[C@@H](CO)C(=O)N[C@@H](C)C(=O)N[C@@H](C)C(N)=O)NC(=O)[C@H](CC2CCC2)NC(=O)[C@H](CCC(N)=O)NC(=O)[C@H](C)NC(=O)[C@H](Cc2c[nH]c3ccccc23)NC(=O)[C@H](Cc2ccc(O)cc2)NC(=O)[C@H](CCC(=O)O)NC1=O)[C@@H](C)O)C(C)C` [MP-669], in that order: 9.923% and more than 50 µM.
`CC(=O)N[C@@H](CCCCN)C(=O)N[C@@H](CCCCN)C(=O)N[C@H](C(=O)N[C@@H](CO)C(=O)N[C@@H](Cc1ccccc1)C(=O)N[C@]1(C)CCCCCCC=CCCC[C@@](C)(C(N)=O)NC(=O)[C@H](CC2CCC2)NC(=O)[C@H](CC(C)C)NC(=O)[C@H](C)NC(=O)[C@H](Cc2c[nH]c3ccccc23)NC(=O)[C@H](Cc2ccc(O)cc2)NC(=O)[C@H](CCC(=O)O)NC1=O)[C@@H](C)O` [MP-087] (Ac-KKTSF[R8]EYWAL[Cba][S5]-NH2; staple 6-13): in the data set on HCT116 cells, the “LDH: Cytotoxicity assay % Effect” value was determined as 23.77%. Moreover, the EC50 in data set [1] (LDH: Cytotoxicity assay EC50) is 35.2 µM.
For `CC(=O)N[C@H](C(=O)N[C@@H](CO)C(=O)N[C@@H](Cc1ccccc1)C(=O)N[C@]1(C)CCCCCCC=CCCC[C@@](C)(C(=O)N[C@@H](CCC(=O)O)C(N)=O)NC(=O)[C@H](CC2CCC2)NC(=O)[C@H](CC(C)C)NC(=O)[C@H](C)NC(=O)[C@H](Cc2c[nH]c3cc(Cl)ccc23)NC(=O)[C@H](Cc2ccc(O)cc2)NC(=O)[C@H](CCC(=O)O)NC1=O)[C@@H](C)O` [MP-043] (Ac-TSF[R8]EY[Trp(6-Cl)]AL[Cba][S5]E-NH2; staple 4-11), in that order: 3.493% and more than 50 µM.
In data set [1] (LDH: Cytotoxicity assay: EC50), `CC(=O)N[C@@H](CC(C)C)C(=O)N[C@H](C(=O)N[C@@H](Cc1ccccc1)C(=O)N[C@]1(C)CCCCCCC=CCCC[C@@](C)(C(=O)N[C@@H](CO)C(=O)N[C@@H](C)C(=O)N[C@@H](C)C(N)=O)NC(=O)[C@H](CC2CCC2)NC(=O)[C@H](CCC(N)=O)NC(=O)[C@H](C)NC(=O)[C@H](Cc2c[nH]c3cc(Cl)ccc23)NC(=O)[C@H](Cc2ccc(O)cc2)NC(=O)[C@H](CCC(=O)O)NC1=O)[C@@H](C)O` [MP-192] registered a concentration giving a half-maximal response (EC50) of 19.9 µM. Moreover, the Solubility entry in data set [2] was “Poorly Behaved”. In addition, the “Partition Coeff LogD” value in data set [3] is “Poorly Behaved”.
For the compound `CC(=O)N[C@@H](CCCCN=[N+]=[N-])C(=O)N[C@@H](CCCCN)C(=O)N[C@@H](CCCCN)C(=O)NCCCCCC(=O)N[C@H](C(=O)N[C@@H](CO)C(=O)N[C@@H](Cc1ccccc1)C(=O)N[C@]1(C)CCCCCCC=CCCC[C@@](C)(C(=O)N[C@@H](CCC(=O)O)C(=O)N[C@@H](CC(N)=O)C(=O)N[C@@H](Cc2ccccc2)C(N)=O)NC(=O)[C@H](CC(C)C)NC(=O)[C@H](CC(C)C)NC(=O)[C@H](C)NC(=O)[C@H](Cc2c[nH]c3ccccc23)NC(=O)[C@H](Cc2ccc(O)cc2)NC(=O)[C@H](CCC(=O)O)NC1=O)[C@@H](C)O` [MP-082] (Ac-[Lys(N3)]KK[Ahx]TSF[R8]EYWALL[S5]ENF-NH2; staple 8-15), the 50% effective concentration (EC50) in data set [1] (LDH: Cytotoxicity assay EC50) was more than 50 µM. Also, in data set [2], the solubility kinetic is 2 µM (≈ 4.75 µg/mL). In data set [3], this compound had a logD of 2.46.
On to `CC(=O)N[C@@H](CCCCN=[N+]=[N-])C(=O)NCCC(=O)N[C@@H](CC(C)C)C(=O)N[C@H](C(=O)N[C@@H](Cc1ccccc1)C(=O)N[C@]1(C)CCCCCCC=CCCC[C@@](C)(C(=O)N[C@@H](CO)C(=O)N[C@@H](C)C(=O)N[C@@H](C)C(N)=O)NC(=O)[C@H](CC2CCC2)NC(=O)[C@H](CCC(N)=O)N(C)C(=O)[C@H](C)NC(=O)[C@H](Cc2c[nH]c3ccccc23)NC(=O)[C@H](Cc2ccc(O)cc2)NC(=O)[C@H](CCC(=O)O)NC1=O)[C@@H](C)O` [MP-499], for which the “LDH: Cytotoxicity assay: % Effect” value in the data set on HCT116 cells was 13.75%. For the same compound, the EC50 in data set [1] (LDH: Cytotoxicity assay: EC50) was more than 50.6 µM.
